The values below come from patent US20090226395A1, “Pharmaceutical compositions of beta-lapachone and beta-lapachone analogs with improved tumor targeting potential” (ArQule, Inc., priority 2004, published 2009).

One data set deals with DLD-1 cells. Kind of data set: MTS cell viability assay, DLD-1 cells. Type of data set: cell-based. As to the method: (§1) Cell viability is determined by measuring the activity of dehydrogenase enzymes in metabolically active cells using a tetrazolium compound, MTS. The assay is performed as described in Promega Technical Bulletin No. 169 (CellTiter 96 Aqueous Non-Radioactive Cell Proliferation Assay). Two cell lines, DLD-1 and NCM-460 are assayed (see, e.g., Table 2). Cells are maintained at 37° C., 5% CO2. Adherent cells are maintained DMEM media (4.5 g/L glucose) supplemented with 15% heat-inactivated FBS, 10 mM L-glutamine, and 10 mM Hepes pH 7.5. Suspension cells are maintained in RPMI 1640 media, supplemented with 10% heat-inactivated FBS and 10 mM Hepes pH 7.5. […] Candidate compounds, including the polymer-modified therapeutics to be tested, are serially diluted in the indicated solvents are, further diluted in cell culture media, and then added to cells. […] MTS stock solution (MTS 2 gm/L, PMS […] in PBS) is added to the cells (final concentration MTS […] and PMS 7.67 mg/L) and incubated for 4 hours. […] The IC50 is defined as the concentration of compound that results in a 50% reduction in the number of viable cells as compared to control wells treated with DMSO only (0.33%) and 0.3% SDS, and is calculated using non-linear regression analysis.

The subject of data set [1] is human peripheral blood mononuclear cells (PBMC). To be noted: cited from earlier work.
A further data set has as its system NCM-460 cells. Kind of data set: MTS cell viability assay, NCM-460 cells. The class given is cell-based. How it is done:
as §1

Data set [2] addresses human DNA Topoisomerases II (Homo sapiens, UniProt P11388). To be noted: cited from earlier work.
The subject of a further data set is human cancer cell lines. Conditions: single agent; typical range; read-out: antineoplastic activity against human cancer cell lines (IC50); cited from earlier work.
For data set [3], the target named is T1, human DNA Topoisomerases I (Homo sapiens, UniProt P11387).
T1 sequence (P11387 1-765): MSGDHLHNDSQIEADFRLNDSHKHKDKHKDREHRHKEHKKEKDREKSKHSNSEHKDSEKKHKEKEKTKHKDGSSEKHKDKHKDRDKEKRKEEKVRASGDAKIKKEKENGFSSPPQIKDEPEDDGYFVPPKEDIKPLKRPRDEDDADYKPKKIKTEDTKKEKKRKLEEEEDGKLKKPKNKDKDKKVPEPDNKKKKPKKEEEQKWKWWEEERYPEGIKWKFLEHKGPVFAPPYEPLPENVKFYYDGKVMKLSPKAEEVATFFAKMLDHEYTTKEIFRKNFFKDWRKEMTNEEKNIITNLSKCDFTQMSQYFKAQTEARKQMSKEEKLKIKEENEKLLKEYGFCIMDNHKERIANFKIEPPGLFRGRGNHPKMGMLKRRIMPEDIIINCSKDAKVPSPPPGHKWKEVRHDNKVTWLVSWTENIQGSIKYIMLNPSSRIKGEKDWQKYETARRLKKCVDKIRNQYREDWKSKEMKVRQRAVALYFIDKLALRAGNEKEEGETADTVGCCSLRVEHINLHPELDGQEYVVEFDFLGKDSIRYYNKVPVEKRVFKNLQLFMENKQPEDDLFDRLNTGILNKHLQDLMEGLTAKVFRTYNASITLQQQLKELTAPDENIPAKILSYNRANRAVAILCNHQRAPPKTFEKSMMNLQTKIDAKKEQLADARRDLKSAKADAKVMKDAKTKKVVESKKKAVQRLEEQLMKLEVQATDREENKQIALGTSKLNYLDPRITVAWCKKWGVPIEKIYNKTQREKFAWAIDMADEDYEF
To be noted: cited from earlier work.

Data set [4] can be described thus: Hydrolytic release of β-lapachone or ketal from poly-L-glutamate conjugates, monitored by HPLC. Type of data set: physicochemical. The text has this:
[…] The complete release of 2,2-dimethyl-3,4-dihydro-2H-benzo[h]chromene-5,6-dione from the conjugate is achieved within 2-3 days as monitored by HPLC. In addition to the 2,2-dimethyl-3,4-dihydro-2H-benzo[h]chromene-5,6-dione peak, two additional peaks are detected in the HPLC chromatogram. These peaks are believed to be products of the degradation of 2,2-dimethyl-3,4-dihydro-2H-benzo[h]chromene-5,6-dione and an alternate hydrolysis product of conjugate. The concentration of released 2,2-dimethyl-3,4-dihydro-2′-1-benzo[h]chromene-5,6-dione is calculated by comparing the peak areas with the previously obtained calibration curve of 2,2-dimethyl-3,4-dihydro-2H-benzo[h]chromene-5,6-dione standard. […] Loading on the polymer is then calculated as follows: […]
The conjugate is dissolved in water at a concentration of about 0.3 mg/ml and sonicated to facilitate dissolution. […] The concentration of released 2,2-dimethyl-3,4-dihydro-2H-benzo[h]chromene-5,6-dione is determined by HPLC and the quantity calculated by comparing the peak areas with a previously obtained calibration curve of 2,2-dimethyl-3,4-dihydro-2H-benzo[h]chromene-5,6-dione standard, as described above in Example 10. […]

Some results are limits rather than exact numbers.

Sequence of human DNA Topoisomerases II (P11388 whole entry): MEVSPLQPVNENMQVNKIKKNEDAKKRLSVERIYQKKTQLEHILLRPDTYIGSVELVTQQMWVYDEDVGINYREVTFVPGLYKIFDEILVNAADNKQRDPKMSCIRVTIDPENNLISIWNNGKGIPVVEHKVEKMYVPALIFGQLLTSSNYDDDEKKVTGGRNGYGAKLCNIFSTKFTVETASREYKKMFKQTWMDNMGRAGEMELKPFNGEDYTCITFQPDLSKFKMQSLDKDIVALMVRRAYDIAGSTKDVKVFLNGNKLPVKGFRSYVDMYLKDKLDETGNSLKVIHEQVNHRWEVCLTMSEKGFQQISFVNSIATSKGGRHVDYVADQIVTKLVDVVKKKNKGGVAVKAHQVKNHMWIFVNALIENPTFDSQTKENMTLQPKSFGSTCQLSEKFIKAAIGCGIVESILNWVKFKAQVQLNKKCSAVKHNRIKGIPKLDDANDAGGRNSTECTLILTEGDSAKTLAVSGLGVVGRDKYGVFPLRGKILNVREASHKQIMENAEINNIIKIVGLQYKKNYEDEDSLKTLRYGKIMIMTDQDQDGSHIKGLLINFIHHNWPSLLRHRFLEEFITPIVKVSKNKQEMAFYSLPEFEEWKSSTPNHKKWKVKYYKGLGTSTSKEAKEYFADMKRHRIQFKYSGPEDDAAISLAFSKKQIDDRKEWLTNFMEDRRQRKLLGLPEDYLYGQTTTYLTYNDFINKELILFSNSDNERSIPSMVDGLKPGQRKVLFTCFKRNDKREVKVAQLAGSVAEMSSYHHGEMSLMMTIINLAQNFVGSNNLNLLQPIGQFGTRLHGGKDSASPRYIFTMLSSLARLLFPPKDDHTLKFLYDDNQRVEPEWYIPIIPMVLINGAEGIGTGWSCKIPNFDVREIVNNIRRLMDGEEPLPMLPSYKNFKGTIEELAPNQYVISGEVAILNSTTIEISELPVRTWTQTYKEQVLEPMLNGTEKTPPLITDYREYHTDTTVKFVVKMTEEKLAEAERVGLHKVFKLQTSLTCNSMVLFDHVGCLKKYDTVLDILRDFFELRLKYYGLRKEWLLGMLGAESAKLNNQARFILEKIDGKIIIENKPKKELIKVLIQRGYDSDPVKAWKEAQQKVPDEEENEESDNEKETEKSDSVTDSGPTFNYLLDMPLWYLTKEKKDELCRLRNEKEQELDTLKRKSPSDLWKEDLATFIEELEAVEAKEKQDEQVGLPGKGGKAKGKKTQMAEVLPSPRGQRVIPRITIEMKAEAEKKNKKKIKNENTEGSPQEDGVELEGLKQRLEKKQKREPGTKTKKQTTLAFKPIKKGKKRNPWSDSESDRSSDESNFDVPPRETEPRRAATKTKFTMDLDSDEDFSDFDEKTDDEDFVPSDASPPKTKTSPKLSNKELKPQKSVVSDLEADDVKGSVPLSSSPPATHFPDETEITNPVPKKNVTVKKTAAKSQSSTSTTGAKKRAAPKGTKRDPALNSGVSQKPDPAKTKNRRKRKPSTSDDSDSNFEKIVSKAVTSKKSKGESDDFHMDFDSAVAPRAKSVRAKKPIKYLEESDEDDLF

On to `CC1(C)CCC2=C(O1)c1ccccc1C(=O)C2=O` [β-lapachone, 3,4-dihydro-2,2-dimethyl-2H-naphtho[1,2-b]pyran-5,6-dione, reference compound], for which the half-inhibitory concentration (IC50) was 3.13 µM in the data set on DLD-1 cells (Homo sapiens, DLD-1, incubation time 20 hours); 1.71 µM in the data set on DLD-1 cells (Homo sapiens, DLD-1, incubation time 72 hours); 8.19 µM in the data set on NCM-460 cells (Homo sapiens, NCM460, incubation time 20 hours); 3.25 µM in the data set with NCM-460 cells (Homo sapiens, NCM460, incubation time 72 hours); 1 to 10 µM in the data set with human cancer cell lines. Besides, the “cytotoxic effects on normal fresh or proliferating human PBMC” value in data set [1] was “No cytotoxic effects were observed”. For the same molecule, the “in vitro inhibition of human DNA Topoisomerase II” value in data set [2] was “potent in vitro inhibition”. Moreover, the “in vitro inhibition of human DNA Topoisomerase I” value in data set [3] was “potent in vitro inhibition”.

In the case of “(2,2-dimethyl-5-oxo-3,4-dihydro-2H,5H-spiro[benzo[h]chromene-6,2′-[1,3]dioxolan]-4′-yl)methyl γ-poly-L-glutamate sodium”, the half-inhibitory concentration (IC50) with DLD-1 cells (incubation time 20 hours), with DLD-1 cells (incubation time 72 hours), in the data set with NCM-460 cells (incubation time 20 hours) and in the data set with NCM-460 cells (incubation time 72 hours) was over 100 µM each time.

As for “5-(acetyloxy)-2,2-dimethyl-3,4-dihydro-2H-benzo[h]chromen-6-yl glycinate γ-poly-L-glutamate”, the concentration for half-maximal inhibition (IC50) was 4.42 µM in the data set on DLD-1 cells (incubation time 20 hours), 1.39 µM in the data set with DLD-1 cells (incubation time 72 hours), 8.12 µM in the data set with NCM-460 cells (incubation time 20 hours) and 3.66 µM in the data set on NCM-460 cells (incubation time 72 hours). Besides, the “time for hydrolysis of β-lapachone from the conjugate” value in data set [4] (pH 11.4) is recorded as 20 min. Besides, the “time to complete release of β-lapachone from the conjugate” value in data set [4] (phosphate buffer pH 9.6, about 0.1 mg/ml) fell in the range of 2 to 3 days.
